{
  "source": "patent US5466675A",
  "about": "“Immunological activity of rhamnolipids” (priority 1992, dated 1995)",
  "key": {"[1]": {"test_system": "oxazolone-induced delayed type hypersensitivity", "experiment": "immunostimulation (cellular): oxazolone-induced delayed type hypersensitivity", "assay_type": "in vivo, mouse", "conditions": "IP 100 × 5 mg/kg", "description": "The test substance was administered i.p to groups of 5 mice, 1 hour before application (sensitization) of oxazolone (0.1 ml of 5% solution) to the pre-shaven abdominal surface. Seven days later, 25 μl of a 2% solution of oxazolone was applied (challenge) to the right ear, with vehicle being applied to the left ear. After 24 hours, each mouse was sacrificed and ear thickness measured with a Dyer Model micrometer gauge. Greater than 30 percent enhancement is considered immunostimulant activity."}, "[2]": {"test_system": "Candida albicans", "experiment": "immunorestoration: immunosuppression with cyclophosphamide and infection with Candida albicans", "assay_type": "in vivo, mouse (ICR, female)", "conditions": "for Survivor No.: n = 10", "text": "[…] One day after the last immunosuppressant dose, the mice were challenged with a suspension of C. albicans sufficient to result in 90 to 100 percent mortality within 10 days in the vehicle treated control group. A greater than 30 percent survival for any drug treated group is considered significant, and possibly a result of immunorestorant activity."}, "[3]": {"test_system": "oxazolone-induced delayed type hypersensitivity", "experiment": "immunosuppression (cellular): oxazolone-induced delayed type hypersensitivity", "assay_type": "in vivo, mouse (ICR, female)", "conditions": "IP 30 × 5 mg/kg", "description": "The shaved abdominal surface of groups of 5 mice were sensitized by application of 0.1 ml of 5% oxazolone. The test substance was administered i.p after 1 hour and then daily for 5 consecutive doses. After an additional 4 days, the animals were challenged by application of 25 ul of 5% oxazolone to the right ear. Twenty-four hours later, ear thickness was measured with a Dyer Model micrometer gauge.\nA 50 percent or greater decrease in drug-treated versus control animals is considered significant immunosuppressant activity."}, "[4]": {"test_system": "sheep red blood cell (SRBC) hemagglutination", "experiment": "immunosuppression (humoral): sheep red blood cell (SRBC) hemagglutination", "assay_type": "in vivo, mouse (ICR, female)", "conditions": "IP 30 × 3 mg/kg", "description": "(§1) Groups of 6 mice were sensitized by the IV injection of 0.2 ml of a 2% SRBC suspension. On the 9th day following sensitization, blood samples were withdrawn from the orbital sinus and equal parts of complement inactivated serum from the group of 6 mice were pooled to yield a single 0.25 ml sample. Serial 2-fold dilutions were then carried out 10 times in the presence of added complement. […] Serum titers of less than 16 or greater than 128 are considered significant and indicate possible immunosuppressant and immunostimulant activity, respectively.\n(§2) For immunostimulant activity, test substance or vehicle was administered i.p. to groups of mice for 3 consecutive days, and sensitized to SRBCs 2 hours after the third (last) injection. For immunosuppressant activity, test substance or vehicle was administered i.p. to groups of mice for 3 consecutive days beginning 2 hours after sensitization to SRBCs."}, "[5]": {"test_system": "Candida albicans", "experiment": "immunomodulation: infection with Candida albicans", "assay_type": "in vivo, mouse (ICR, female)", "conditions": "IP 30 mg/kg", "description": "The test compound or vehicle was administered i.p. to groups of 10 mice 1 hour before IV, challenge with suspension of C. albicans sufficient to result in 90 to 100% mortality within 10 days in the vehicle treated control group. A greater than 30 percent survival for any treated group is considered very significant, and possibly a result of immunomodulation, while an increase of 20% is considered a moderate immunomodulation activity."}, "[6]": {"test_system": "sheep red blood cell (SRBC) hemagglutination", "experiment": "immunostimulation (humoral): sheep red blood cell (SRBC) hemagglutination", "assay_type": "in vivo, mouse (ICR, female)", "conditions": "IP 30 × 3 mg/kg", "description": "as §1, §2"}, "[7]": {"test_system": "phospholipase A2", "conditions": "Japanese patent No. 63 253 025; cited from earlier work"}, "[8]": {"conditions": "IP 100 × 3 mg/kg + cyclophosphamide"}, "[9]": {"conditions": "cyclophosphamide alone, PO 30 × 3 mg/kg"}},
  "data": [
    {"compound": "CC(C)(N1CC1C#N)N1CC1C(N)=O", "note": "(stereo not shown) [Azimexone, reference compound]", "values": [
      {"measurement": "Swelling Inc. %", "setting": "[1]", "value": 31, "unit": "%"},
      {"measurement": "Swelling (R -L)", "setting": "[1]; X ± SEM", "value": "22.8 +/- 0.9 × 0.01 mm"},
      {"measurement": "ear thickness, Left Ear (No Oxa.)", "setting": "[1]; X ± SEM", "value": "21.4 +/- 0.5 × 0.01 mm"},
      {"measurement": "ear thickness, Right Ear (24 hrs Oxa.)", "setting": "[1]; X ± SEM", "value": "44.2 +/- 0.7 × 0.01 mm"},
      {"measurement": "Death, days post-inoculum 0-1", "setting": "[2]; [8]", "value": "2 #/10 Mice"},
      {"measurement": "Death, days post-inoculum 2-3", "setting": "[2]; [8]", "value": "1 #/10 Mice"},
      {"measurement": "Death, days post-inoculum 4-6", "setting": "[2]; [8]", "value": "1 #/10 Mice"},
      {"measurement": "Death, days post-inoculum 7-9", "setting": "[2]; [8]", "value": "1 #/10 Mice"},
      {"measurement": "Response Inc. %", "setting": "[2]; [8]", "value": 30, "unit": "%"},
      {"measurement": "Survivor No.", "setting": "[2]; [8]", "value": 5}
    ]},
    {"compound": "O=P1(N(CCCl)CCCl)NCCCO1", "note": "(stereo not shown) [Cyclophosphamide, reference compound]", "values": [
      {"measurement": "Swelling Inh. %", "setting": "[3]", "value": 59, "unit": "%"},
      {"measurement": "Swelling (R -L)", "setting": "[3]; X +/- SEM", "value": "10.6 +/- 1.8 × 0.01 mm"},
      {"measurement": "ear thickness, Left Ear (No Oxa.)", "setting": "[3]; X +/- SEM", "value": "19.0 +/- 0.4 × 0.01 mm"},
      {"measurement": "ear thickness, Right Ear (24 hrs Oxa.)", "setting": "[3]; X +/- SEM", "value": "29.6 +/- 2.2 × 0.01 mm"},
      {"measurement": "Death, days post-inoculum 0-1", "setting": "[2]; [9]", "value": "3 #/10 Mice"},
      {"measurement": "Death, days post-inoculum 2-3", "setting": "[2]; [9]", "value": "2 #/10 Mice"},
      {"measurement": "Death, days post-inoculum 4-6", "setting": "[2]; [9]", "value": "2 #/10 Mice"},
      {"measurement": "Death, days post-inoculum 7-9", "setting": "[2]; [9]", "value": "1 #/10 Mice"},
      {"measurement": "Survivor No.", "setting": "[2]; [9]", "value": 2},
      {"measurement": "SERUM TITER (Reciprocal Serum Dilution)", "setting": "[4]", "value": 4}
    ]},
    {"compound": "c1ccc([C@H]2CN3CCSC3=N2)cc1", "note": "[Levamisole, reference compound]", "values": [
      {"measurement": "Death, days post-inoculum 0-1", "setting": "[5]", "value": "3 #/10 Mice"},
      {"measurement": "Death, days post-inoculum 2-3", "setting": "[5]", "value": "3 #/10 Mice"},
      {"measurement": "Death, days post-inoculum 4-6", "setting": "[5]", "value": "0 #/10 Mice"},
      {"measurement": "Death, days post-inoculum 7-9", "setting": "[5]", "value": "0 #/10 Mice"},
      {"measurement": "Response Inc. %", "setting": "[5]", "value": 20, "unit": "%"},
      {"measurement": "Survivor No.", "setting": "[5]; n = 10", "value": 4},
      {"measurement": "SERUM TITER (Reciprocal Serum Dilution)", "setting": "[6]", "value": 128}
    ]},
    {"compound": "rhamnopyranosyldecanoic acid", "values": [
      {"measurement": "phospholipase A2 inhibition", "setting": "[7]", "value": "phospholipase A2 inhibition"}
    ]}
  ]
}
